From ChEMBL document CHEMBL1156212, “Curcumin derivatives inhibit testicular 17beta-hydroxysteroid dehydrogenase 3” (Bioorg Med Chem Lett, 2010)
The source made the active and inactive calls. The rule behind the calls is not given here.

biological target: T1, 17-beta-hydroxysteroid dehydrogenase type 3 (Homo sapiens, UniProt P37058); assay: Inhibition of 17beta-HSD3; conditions: not given
T1 sequence (P37058 whole entry): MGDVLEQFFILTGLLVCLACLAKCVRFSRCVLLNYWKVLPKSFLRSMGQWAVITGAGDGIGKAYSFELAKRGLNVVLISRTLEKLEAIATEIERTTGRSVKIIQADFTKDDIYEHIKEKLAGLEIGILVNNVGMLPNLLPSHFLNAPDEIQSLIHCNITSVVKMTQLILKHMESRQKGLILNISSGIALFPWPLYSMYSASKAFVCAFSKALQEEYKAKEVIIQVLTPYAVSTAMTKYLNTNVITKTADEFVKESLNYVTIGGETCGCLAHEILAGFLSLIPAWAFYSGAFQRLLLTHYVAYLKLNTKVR

| Compound | IC50 [nM] |
| --- | --- |
| C[C@]12CC[C@H](OCCc3ccccc3)CC1CC[C@@H]1[C@@H]2CC[C@]2(C)C(=O)CC[C@@H]12 (stereo partly specified) | 57 |

biological target: T2, 17-beta-hydroxysteroid dehydrogenase type 3 (Rattus norvegicus, UniProt O54939); assay: Inhibition of 17beta-HSD3 in Sprague-Dawley rat testis microsomes; conditions: not given
T2 sequence (O54939 whole entry): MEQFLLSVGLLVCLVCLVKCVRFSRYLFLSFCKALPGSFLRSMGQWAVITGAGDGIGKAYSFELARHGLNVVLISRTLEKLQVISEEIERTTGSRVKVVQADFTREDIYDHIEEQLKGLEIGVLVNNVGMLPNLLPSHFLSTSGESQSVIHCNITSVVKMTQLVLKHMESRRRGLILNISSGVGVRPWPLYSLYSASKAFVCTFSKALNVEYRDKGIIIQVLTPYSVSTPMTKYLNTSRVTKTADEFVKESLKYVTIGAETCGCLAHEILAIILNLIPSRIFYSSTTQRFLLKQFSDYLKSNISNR

| Compound | IC50 [nM] |
| --- | --- |
| O=C(/C=C/c1cccc(Br)c1)/C=C/c1cccc(Br)c1 | 8500 |
| O=C1/C(=C/c2cccc(Br)c2)CC/C1=C\c1cccc(Br)c1 | 700 |
| COc1cc(/C=C2\CCC/C(=C\c3cc(OC)c(OC)c(OC)c3)C2=O)cc(OC)c1OC | 1800 |
| COc1cc(/C=C/C(=O)CC(=O)/C=C/c2ccc(O)c(OC)c2)ccc1O [CURCUMIN] | 2300 |
| O=C(/C=C/c1ccc(F)cc1)/C=C/c1ccc(F)cc1 | 3300 |

biological target: T1, 17-beta-hydroxysteroid dehydrogenase type 3; assay: Inhibition of 17beta-HSD3 in human testis microsomes; conditions: not given

| Compound | IC50 [nM] |
| --- | --- |
| O=C(/C=C/c1cccc(Br)c1)/C=C/c1cccc(Br)c1 | 2700 |
| COc1cc(/C=C2\CCC/C(=C\c3cc(OC)c(OC)c(OC)c3)C2=O)cc(OC)c1OC | 100 |
| COc1cc(/C=C/C(=O)CC(=O)/C=C/c2ccc(O)c(OC)c2)ccc1O [CURCUMIN] | 67300 |
| O=C1C=CC(=O)C(c2ccc(-c3ccccc3)cc2)=C1 | 2700 |
| CN(C)c1ccc(/C=C/C(=O)/C=C/c2ccc(N(C)C)cc2)cc1 | 2400 |

biological target: T3, 17-beta-hydroxysteroid dehydrogenase type 3 (Homo sapiens) (UniProt P37058); conditions: Testis, Microsomes, 1 to 10 uM
T3 sequence (whole entry): T1 sequence (P37058 whole entry)
Description: Uncompetitive inhibition of 17beta-HSD3 in human testis microsomes at 1 to 10 uM by Lineweaver-Burke plot analysis

| Compound | inhibition |
| --- | --- |
| COc1cc(/C=C/C(=O)CC(=O)/C=C/c2ccc(O)c(OC)c2)ccc1O [CURCUMIN] | Active |

system: not listed separately; assay: Inhibition of LH-stimulated testosterone production in Sprague-Dawley rat leydig cells at 10 uM after 18 hrs by tritium based radio immuno assay relative to control; type: functional; conditions: read-out: INH

| Compound | inhibition at 10 µM [%] |
| --- | --- |
| COc1cc(/C=C/C(=O)CC(=O)/C=C/c2ccc(O)c(OC)c2)ccc1O [CURCUMIN] | 64 |

biological target: T4, 17-beta-hydroxysteroid dehydrogenase type 3 (Rattus norvegicus) (UniProt O54939); assay: Inhibition of 17beta-HSD3 in Sprague-Dawley rat testis microsomes at 100 uM; conditions: not given
T4 sequence (whole entry): T2 sequence (O54939 whole entry)

| Compound | inhibition |
| --- | --- |
| COc1cc(/C=C2\CC/C(=C\c3cc(OC)c(OC)c(OC)c3)C2=O)cc(OC)c1OC | inactive |
| COc1cc(/C=C2\CCC/C(=C\c3ccc(OC4CCCOC4)c(OC)c3)C2=O)ccc1OC1CCCOC1 (stereo unspecified) | 27% |
| COc1cc(/C=C/C(=O)/C=C/c2ccc(OC3CCCOC3)c(OC)c2)ccc1OC1CCCOC1 (stereo unspecified) | 35% |
| O=C1/C(=C/c2ccc(O)cc2)CC/C1=C\c1ccc(O)cc1 | 15% |
| CCOc1ccc(/C=C/C(=O)/C=C/c2ccc(OCC)cc2)cc1 | 16% |
| O=C1/C(=C/c2cccc(Br)c2)CCC/C1=C\c1cccc(Br)c1 | 40% |
| CN(C)c1ccc(/C=C2\CCC/C(=C\c3ccc(N(C)C)cc3)C2=O)cc1 | 10% |
| COc1cc(/C=C2\CC/C(=C\c3ccc(OC4CCCOC4)c(OC)c3)C2=O)ccc1OC1CCCOC1 (stereo unspecified) | inactive |
| COc1cc(/C=C/C(=O)/C=C/c2cc(OC)c(OC)c(OC)c2)cc(OC)c1OC | inactive |
| CCOc1ccc(/C=C2\CC/C(=C\c3ccc(OCC)cc3)C2=O)cc1 | inactive |
| O=C1/C(=C/c2ccc(OC3CCCOC3)cc2)CCC/C1=C\c1ccc(OC2CCCOC2)cc1 (stereo unspecified) | 21% |
| O=C1/C(=C/c2cccc(C(F)(F)F)c2F)CC/C1=C\c1cccc(C(F)(F)F)c1F | 23% |
| O=C1/C(=C/c2ccc(F)cc2)CC/C1=C\c1ccc(F)cc1 | 15% |
| O=C1/C(=C/c2ccc(F)cc2)CCC/C1=C\c1ccc(F)cc1 | inactive |
| CN(C)c1ccc(/C=C/C(=O)/C=C/c2ccc(N(C)C)cc2)cc1 | 15% |
| O=C(/C=C/c1ccc(OC2CCCOC2)cc1)/C=C/c1ccc(OC2CCCOC2)cc1 (stereo unspecified) | 29% |
| O=C(/C=C/c1ccc(O)cc1)/C=C/c1ccc(O)cc1 | 33% |
| CN(C)c1ccc(/C=C2\CC/C(=C\c3ccc(N(C)C)cc3)C2=O)cc1 | inactive |
| O=C1/C(=C/c2ccc(OC3CCCOC3)cc2)CC/C1=C\c1ccc(OC2CCCOC2)cc1 (stereo unspecified) | 13% |
| COc1cc(/C=C2\CC/C(=C\c3ccc(OCCCN(C)C)c(OC)c3)C2=O)ccc1OCCCN(C)C | 32% |
| O=C1/C(=C/c2ccc(O)cc2)CCC/C1=C\c1ccc(O)cc1 | 34% |
| CCOc1ccc(/C=C2\CCC/C(=C\c3ccc(OCC)cc3)C2=O)cc1 | 16% |

biological target: T4, 17-beta-hydroxysteroid dehydrogenase type 3 (Rattus norvegicus); assay: Uncompetitive inhibition of 17beta-HSD3 in Sprague-Dawley rat testis microsomes at 1 to 10 uM by Lineweaver-Burke plot analysis; conditions: Microsome

| Compound | inhibition |
| --- | --- |
| COc1cc(/C=C/C(=O)CC(=O)/C=C/c2ccc(O)c(OC)c2)ccc1O [CURCUMIN] | Active |

biological target: T3, 17-beta-hydroxysteroid dehydrogenase type 3 (Homo sapiens); assay: Inhibition of 17beta-HSD3 in human testis microsomes at 100 uM; conditions: not given

| Compound | inhibition |
| --- | --- |
| COc1cc(/C=C2\CC/C(=C\c3cc(OC)c(OC)c(OC)c3)C2=O)cc(OC)c1OC | inactive |
| COc1cc(/C=C2\CCC/C(=C\c3ccc(OC4CCCOC4)c(OC)c3)C2=O)ccc1OC1CCCOC1 (stereo unspecified) | inactive |
| COc1cc(/C=C/C(=O)/C=C/c2ccc(OC3CCCOC3)c(OC)c2)ccc1OC1CCCOC1 (stereo unspecified) | 20% |
| O=C1/C(=C/c2ccc(O)cc2)CC/C1=C\c1ccc(O)cc1 | 28% |
| O=C1/C(=C/c2cccc(Br)c2)CC/C1=C\c1cccc(Br)c1 | 14% |
| CCOc1ccc(/C=C/C(=O)/C=C/c2ccc(OCC)cc2)cc1 | 16% |
| O=C1/C(=C/c2cccc(Br)c2)CCC/C1=C\c1cccc(Br)c1 | 15% |
| CN(C)c1ccc(/C=C2\CCC/C(=C\c3ccc(N(C)C)cc3)C2=O)cc1 | 17% |
| COc1cc(/C=C2\CC/C(=C\c3ccc(OC4CCCOC4)c(OC)c3)C2=O)ccc1OC1CCCOC1 (stereo unspecified) | inactive |
| COc1cc(/C=C/C(=O)/C=C/c2cc(OC)c(OC)c(OC)c2)cc(OC)c1OC | inactive |
| CCOc1ccc(/C=C2\CC/C(=C\c3ccc(OCC)cc3)C2=O)cc1 | inactive |
| O=C1/C(=C/c2ccc(OC3CCCOC3)cc2)CCC/C1=C\c1ccc(OC2CCCOC2)cc1 (stereo unspecified) | inactive |
| O=C(/C=C/c1ccc(F)cc1)/C=C/c1ccc(F)cc1 | 39% |
| O=C1/C(=C/c2cccc(C(F)(F)F)c2F)CC/C1=C\c1cccc(C(F)(F)F)c1F | inactive |
| O=C1/C(=C/c2ccc(F)cc2)CC/C1=C\c1ccc(F)cc1 | 11% |
| O=C1/C(=C/c2ccc(F)cc2)CCC/C1=C\c1ccc(F)cc1 | inactive |
| O=C(/C=C/c1ccc(OC2CCCOC2)cc1)/C=C/c1ccc(OC2CCCOC2)cc1 (stereo unspecified) | 22% |
| O=C(/C=C/c1ccc(O)cc1)/C=C/c1ccc(O)cc1 | 46% |
| CN(C)c1ccc(/C=C2\CC/C(=C\c3ccc(N(C)C)cc3)C2=O)cc1 | inactive |
| O=C1/C(=C/c2ccc(OC3CCCOC3)cc2)CC/C1=C\c1ccc(OC2CCCOC2)cc1 (stereo unspecified) | inactive |
| COc1cc(/C=C2\CC/C(=C\c3ccc(OCCCN(C)C)c(OC)c3)C2=O)ccc1OCCCN(C)C | 28% |
| O=C1/C(=C/c2ccc(O)cc2)CCC/C1=C\c1ccc(O)cc1 | 38% |
| CCOc1ccc(/C=C2\CCC/C(=C\c3ccc(OCC)cc3)C2=O)cc1 | 13% |

biological target: T4, 17-beta-hydroxysteroid dehydrogenase type 3 (Rattus norvegicus); assay: Inhibition of 17beta-HSD3 in Sprague-Dawley rat laydig cells at 100 uM; conditions: not given

| Compound | inhibition |
| --- | --- |
| COc1cc(/C=C2\CC/C(=C\c3cc(OC)c(OC)c(OC)c3)C2=O)cc(OC)c1OC | 11% |
| COc1cc(/C=C2\CCC/C(=C\c3ccc(OC4CCCOC4)c(OC)c3)C2=O)ccc1OC1CCCOC1 (stereo unspecified) | 26% |
| COc1cc(/C=C/C(=O)/C=C/c2ccc(OC3CCCOC3)c(OC)c2)ccc1OC1CCCOC1 (stereo unspecified) | inactive |
| O=C(/C=C/c1cccc(Br)c1)/C=C/c1cccc(Br)c1 | 20% |
| O=C1/C(=C/c2ccc(O)cc2)CC/C1=C\c1ccc(O)cc1 | 18% |
| O=C1/C(=C/c2cccc(Br)c2)CC/C1=C\c1cccc(Br)c1 | 30% |
| O=C1/C(=C/c2cccc(Br)c2)CCC/C1=C\c1cccc(Br)c1 | 25% |
| CN(C)c1ccc(/C=C2\CCC/C(=C\c3ccc(N(C)C)cc3)C2=O)cc1 | 12% |
| COc1cc(/C=C2\CC/C(=C\c3ccc(OC4CCCOC4)c(OC)c3)C2=O)ccc1OC1CCCOC1 (stereo unspecified) | inactive |
| COc1cc(/C=C/C(=O)/C=C/c2cc(OC)c(OC)c(OC)c2)cc(OC)c1OC | inactive |
| CCOc1ccc(/C=C2\CC/C(=C\c3ccc(OCC)cc3)C2=O)cc1 | 14% |
| O=C1/C(=C/c2ccc(OC3CCCOC3)cc2)CCC/C1=C\c1ccc(OC2CCCOC2)cc1 (stereo unspecified) | 16% |
| O=C1/C(=C/c2cccc(C(F)(F)F)c2F)CC/C1=C\c1cccc(C(F)(F)F)c1F | inactive |
| O=C1/C(=C/c2ccc(F)cc2)CC/C1=C\c1ccc(F)cc1 | 14% |
| O=C1/C(=C/c2ccc(F)cc2)CCC/C1=C\c1ccc(F)cc1 | inactive |
| CN(C)c1ccc(/C=C/C(=O)/C=C/c2ccc(N(C)C)cc2)cc1 | inactive |
| O=C(/C=C/c1ccc(O)cc1)/C=C/c1ccc(O)cc1 | 30% |
| CN(C)c1ccc(/C=C2\CC/C(=C\c3ccc(N(C)C)cc3)C2=O)cc1 | inactive |
| O=C1/C(=C/c2ccc(OC3CCCOC3)cc2)CC/C1=C\c1ccc(OC2CCCOC2)cc1 (stereo unspecified) | inactive |
| COc1cc(/C=C2\CC/C(=C\c3ccc(OCCCN(C)C)c(OC)c3)C2=O)ccc1OCCCN(C)C | 38% |
| O=C1/C(=C/c2ccc(O)cc2)CCC/C1=C\c1ccc(O)cc1 | 13% |
| CCOc1ccc(/C=C2\CCC/C(=C\c3ccc(OCC)cc3)C2=O)cc1 | inactive |

biological target: T2, 17-beta-hydroxysteroid dehydrogenase type 3; assay: Inhibition of 17beta-HSD3 in Sprague-Dawley rat laydig cells; conditions: not given

| Compound | IC50 [nM] |
| --- | --- |
| CCOc1ccc(/C=C/C(=O)/C=C/c2ccc(OCC)cc2)cc1 | 70 |
| COc1cc(/C=C2\CCC/C(=C\c3cc(OC)c(OC)c(OC)c3)C2=O)cc(OC)c1OC | > 100000 |
| COc1cc(/C=C/C(=O)CC(=O)/C=C/c2ccc(O)c(OC)c2)ccc1O [CURCUMIN] | 9000 |
| O=C(/C=C/c1ccc(F)cc1)/C=C/c1ccc(F)cc1 | 100 |
| O=C(/C=C/c1ccc(OC2CCCOC2)cc1)/C=C/c1ccc(OC2CCCOC2)cc1 (stereo unspecified) | 1300 |
